# Like-named read-outs stand apart in the source and are kept apart here. Numbered stars: 1 amine (or outer) side, 2 acyl side, 3 side chain; on linkers, the order of the positions; unused ones are H or OH. Square brackets hold non-standard residues; d marks the D form. Side chains are listed from the residue outwards. Peptide text beside a SMILES is read from it. * marks the point of attachment. γGlu = O=C(O)[C@H](CCC(=O)[*:2])N[*:1]; Palmitoyl = CCCCCCCCCCCCCCCC(=O)*; αMeF = C[C@](N)(Cc1ccccc1)C(=O)O; αMeK = C[C@](N)(CCCCN)C(=O)O; Lauroyl = CCCCCCCCCCCC(=O)*; αMeS = C[C@](N)(CO)C(=O)O; AEEA = NCCOCCOCC(=O)O; Aib = CC(C)(N)C(=O)O
# Experiments:
# Assay type in all cases: cell-based
# [1] = target: T1, human glucagon receptor (GCGR) (Homo sapiens, UniProt P47871); assay: cAMP assay, human GCGR cells
# T1 construct: expressed in transfected cells
# Summary of the method: (§1)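 Peptide-stimulated cAMP measured by two-step HTRF after a 30 min room-temperature incubation with receptor-expressing cells (hGLP-1R, hGIPR at 1×10^5 cells/ml; hGCGR at 2×10^5 cells/ml). Duplicate dilutions; EC50 from 4-parameter logistic fit of % Delta F.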
# [2] = target: T2, human glucose-dependent insulinotropic peptide receptor (GIPR) (Homo sapiens, UniProt P48546); assay: cAMP assay, human GIPR cells
# T2 construct: expressed in transfected cells
# T2 sequence (P48546 22-466): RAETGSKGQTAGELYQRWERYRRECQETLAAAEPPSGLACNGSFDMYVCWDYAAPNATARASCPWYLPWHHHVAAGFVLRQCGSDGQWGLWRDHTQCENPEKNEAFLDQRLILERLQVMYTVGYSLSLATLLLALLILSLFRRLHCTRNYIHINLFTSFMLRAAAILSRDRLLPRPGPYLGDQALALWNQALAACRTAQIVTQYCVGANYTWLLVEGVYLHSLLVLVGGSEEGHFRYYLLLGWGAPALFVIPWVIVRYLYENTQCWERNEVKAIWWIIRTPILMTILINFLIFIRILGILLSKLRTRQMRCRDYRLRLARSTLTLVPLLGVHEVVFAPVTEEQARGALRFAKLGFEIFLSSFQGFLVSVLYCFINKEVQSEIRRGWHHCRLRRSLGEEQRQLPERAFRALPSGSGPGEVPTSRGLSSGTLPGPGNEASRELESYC
# Summary of the method: as §1
# [3] = target: T3, human GLP-1 receptor (GLP-1R) (Homo sapiens, UniProt P43220); assay: cAMP assay, human GLP-1R cells
# T3 construct: expressed in transfected cells
# Summary of the method: as §1
# [4] = cAMP assay, first determination (n1), read-out: Primary assay EC50 Gluc-R (n1)
# [5] = cAMP assay, second determination (n2), read-out: Primary assay EC50 Gluc-R (n2)
# [6] = cAMP assay, first determination (n1), read-out: Primary assay EC50 GIP-R (n1)
# [7] = cAMP assay, second determination (n2), read-out: Primary assay EC50 GIP-R (n2)
# [8] = cAMP assay, first determination (n1), read-out: Primary assay EC50 GLP-1R n1
# [9] = cAMP assay, second determination (n2), read-out: Primary assay EC50 GLP-1R n2
# [10] = mean of n1 and n2, read-out: Mean pM GLP-1R
# T3 sequence (P43220 24-463): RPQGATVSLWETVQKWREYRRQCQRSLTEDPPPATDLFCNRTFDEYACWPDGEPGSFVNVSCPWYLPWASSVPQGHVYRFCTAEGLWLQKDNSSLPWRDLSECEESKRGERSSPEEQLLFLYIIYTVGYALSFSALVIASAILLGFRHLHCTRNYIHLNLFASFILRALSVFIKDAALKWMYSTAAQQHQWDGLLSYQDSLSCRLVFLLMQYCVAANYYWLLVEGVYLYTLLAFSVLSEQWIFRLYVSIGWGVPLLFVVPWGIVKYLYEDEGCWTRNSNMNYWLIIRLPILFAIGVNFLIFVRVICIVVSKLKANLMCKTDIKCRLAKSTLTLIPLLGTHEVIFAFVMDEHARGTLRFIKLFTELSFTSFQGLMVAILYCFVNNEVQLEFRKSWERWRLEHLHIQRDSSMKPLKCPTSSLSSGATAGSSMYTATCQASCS
# T1 sequence (P47871 26-477): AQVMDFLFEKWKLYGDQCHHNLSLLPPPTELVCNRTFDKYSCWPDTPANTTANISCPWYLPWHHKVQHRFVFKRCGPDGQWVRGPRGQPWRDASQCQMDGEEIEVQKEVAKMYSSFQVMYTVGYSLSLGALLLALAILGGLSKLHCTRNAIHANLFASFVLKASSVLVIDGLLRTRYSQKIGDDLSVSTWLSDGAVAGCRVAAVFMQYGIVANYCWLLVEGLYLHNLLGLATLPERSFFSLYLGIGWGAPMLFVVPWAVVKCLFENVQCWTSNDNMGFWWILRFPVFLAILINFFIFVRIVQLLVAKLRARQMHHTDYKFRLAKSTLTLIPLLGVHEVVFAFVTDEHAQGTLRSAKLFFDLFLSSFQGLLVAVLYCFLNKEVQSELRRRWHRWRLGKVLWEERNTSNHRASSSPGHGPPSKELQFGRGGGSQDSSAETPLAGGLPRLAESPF
"EC50 [1, 4] [nM]","EC50 [1, 5] [nM]","EC50 [2, 6] [nM]","EC50 [2, 7] [nM]","EC50 [3, 8] [pM]","EC50 [3, 9] [pM]","EC50 [3, 10] [pM]","EC50 ([1]; tris-lipidated peptides, second replicate, read-out: Primary assay EC50 Gluc-R (n2)) [nM]","EC50 ([2]; tris-lipidated peptides, second replicate, read-out: Primary assay EC50 GIP-R (n2)) [nM]","EC50 ([3]; tris-lipidated peptides, mean of n1 and n2, read-out: Primary assay EC50 Mean pM GLP-1R) [pM]","EC50 ([3]; tris-lipidated peptides, replicate n1, read-out: Primary assay EC50 GLP-1R n1) [pM]","EC50 ([3]; tris-lipidated peptides, replicate n2, read-out: Primary assay EC50 GLP-1R n2) [pM]",SMILES,"EC50 ([1]; Primary assay EC50 Gluc-R (n1), cAMP assay, first determination (n1)) [nM]","EC50 ([1]; read-out: Primary assay EC50 Gluc-R (n2), cAMP assay, second determination (n2)) [nM]","EC50 ([2]; Primary assay EC50 GIP-R (n1), cAMP assay, first determination (n1)) [nM]","EC50 ([2]; read-out: Primary assay EC50 GIP-R (n2), cAMP assay, second determination (n2)) [nM]"
≥ 92,≥ 28,≥ 92,≥ 28,7300,1700,4500,–,–,–,–,–,CCCCCCCCCCCCCCCC(=O)N[C@@H](CCC(=O)NCCCC[C@H](NC(=O)[C@H](C)NC(=O)[C@H](C)NC(=O)[C@H](CCC(=O)O)NC(=O)CNC(=O)[C@H](CCC(=O)O)NC(=O)[C@H](CC(C)C)NC(=O)[C@](C)(Cc1ccccc1)NC(=O)[C@H](CO)NC(=O)[C@](C)(CO)NC(=O)[C@@H](NC(=O)[C@H](CC(=O)O)NC(=O)[C@H](CC(=O)O)NC(=O)[C@@H](NC(=O)[C@](C)(Cc1ccccc1)NC(=O)[C@H](CO)NC(=O)CNC(=O)[C@H](CCC(=O)O)NC(=O)C(C)(C)NC(=O)[C@@H](N)Cc1c[nH]cn1)[C@@H](C)O)C(C)C)C(=O)N[C@@H](CCC(=O)O)C(=O)N[C@@](C)(Cc1ccccc1)C(=O)N[C@H](C(=O)N[C@@H](C)C(=O)N[C@@](C)(Cc1ccccc1)C(=O)N[C@H](C(=O)N[C@H](C(=O)N[C@@](C)(CCCCN)C(=O)NCC(=O)NCC(N)=O)C(C)C)C(C)C)[C@@H](C)CC)C(=O)O [compound 37] (H-H[Aib]EGS[αMeF]TDDV[αMeS]S[αMeF]LEGEAAK([γGlu-Palmitoyl])E[αMeF]IA[αMeF]VV[αMeK]GG-NH2),–,–,–,–
≥ 27,≥ 27,≥ 27,≥ 27,34,25,29.4,–,–,–,–,–,CCCCCCCCCCCC(=O)NCCCCCC(=O)NCCCCCC(=O)NCCCCCC(=O)NCCCC[C@H](NC(=O)[C@H](C)NC(=O)[C@H](C)NC(=O)[C@H](CCC(=O)O)NC(=O)CNC(=O)[C@H](CCC(=O)O)NC(=O)[C@H](CC(C)C)NC(=O)[C@](C)(Cc1ccccc1)NC(=O)[C@H](CO)NC(=O)[C@](C)(CO)NC(=O)[C@@H](NC(=O)[C@H](CC(=O)O)NC(=O)[C@H](CO)NC(=O)[C@@H](NC(=O)[C@](C)(Cc1ccccc1)NC(=O)[C@H](CO)NC(=O)CNC(=O)[C@H](CCC(=O)O)NC(=O)C(C)(C)NC(=O)[C@@H](N)Cc1c[nH]cn1)[C@@H](C)O)C(C)C)C(=O)N[C@@H](CCC(=O)O)C(=O)N[C@@](C)(Cc1ccccc1)C(=O)N[C@H](C(=O)N[C@@H](C)C(=O)N[C@@](C)(Cc1ccccc1)C(=O)N[C@H](C(=O)N[C@H](C(=O)N[C@@](C)(CCCCN)C(=O)NCC(=O)NCC(N)=O)C(C)C)C(C)C)[C@@H](C)CC [compound 133],–,–,–,–
≥ 100,≥ 100,≥ 100,≥ 100,32,32,32,–,–,–,–,–,CC(C)C[C@H](NC(=O)[C@](C)(Cc1ccccc1)NC(=O)[C@H](CO)NC(=O)[C@H](CO)NC(=O)[C@@H](NC(=O)[C@H](CC(=O)O)NC(=O)[C@H](CO)NC(=O)[C@@H](NC(=O)[C@](C)(Cc1ccccc1)NC(=O)[C@H](CO)NC(=O)CNC(=O)[C@H](CCC(=O)O)NC(=O)C(C)(C)NC(=O)[C@@H](N)Cc1c[nH]cn1)[C@@H](C)O)C(C)C)C(=O)N[C@@H](CCC(=O)O)C(=O)NCC(=O)N[C@@H](CCC(=O)O)C(=O)N[C@@H](C)C(=O)N[C@@H](C)C(=O)N[C@@](C)(CCCCN)C(=O)N[C@@H](CCC(=O)O)C(=O)N[C@@](C)(Cc1ccccc1)C(=O)N[C@H](C(=O)N[C@@H](C)C(=O)N[C@@](C)(Cc1ccccc1)C(=O)N[C@H](C(=O)N[C@H](C(=O)N[C@@](C)(CCCCN)C(=O)NCC(=O)NCC(N)=O)C(C)C)C(C)C)C(C)C [compound 11] (H-H[Aib]EGS[αMeF]TSDVSS[αMeF]LEGEAA[αMeK]E[αMeF]VA[αMeF]VV[αMeK]GG-NH2),–,–,–,–
≥ 94,≥ 28,≥ 94,≥ 28,240,51,147,–,–,–,–,–,CCCCCCCCCCCCCCCC(=O)N[C@@H](CCC(=O)NCCCC[C@H](NC(=O)[C@H](C)NC(=O)[C@H](C)NC(=O)[C@H](CCC(=O)O)NC(=O)CNC(=O)[C@H](CCC(=O)O)NC(=O)[C@H](CC(C)C)NC(=O)[C@](C)(Cc1ccccc1)NC(=O)[C@H](CO)NC(=O)[C@H](CO)NC(=O)[C@@H](NC(=O)[C@H](CC(=O)O)NC(=O)[C@H](CO)NC(=O)[C@@H](NC(=O)[C@](C)(Cc1ccccc1)NC(=O)[C@H](CO)NC(=O)CNC(=O)[C@H](CCC(=O)O)NC(=O)C(C)(C)NC(=O)[C@@H](N)Cc1c[nH]cn1)[C@@H](C)O)C(C)C)C(=O)N[C@@H](CCC(=O)O)C(=O)N[C@@](C)(Cc1ccccc1)C(=O)N[C@H](C(=O)N[C@@H](C)C(=O)N[C@@](C)(Cc1ccccc1)C(=O)N[C@H](C(=O)N[C@H](C(=O)N[C@@H](CCCCN)C(=O)NCC(=O)NCC(N)=O)C(C)C)C(C)C)[C@@H](C)CC)C(=O)O [compound 41],–,–,–,–
–,–,–,–,–,–,–,19.6,19.6,434,399,470,CCCCCCCCCCCC(=O)N[C@@H](CCC(=O)NCCOCCOCC(=O)NCCOCCOCC(=O)NCCCC[C@H](NC(=O)[C@H](CCC(=O)O)NC(=O)CNC(=O)[C@H](CCC(=O)O)NC(=O)[C@H](CC(C)C)NC(=O)[C@H](Cc1ccc(O)cc1)NC(=O)[C@H](CO)NC(=O)[C@H](CO)NC(=O)[C@H](CCCCNC(=O)COCCOCCNC(=O)COCCOCCNC(=O)CC[C@H](NC(=O)CCCCCCCCCCC)C(=O)O)NC(=O)[C@H](CC(=O)O)NC(=O)[C@H](CO)NC(=O)[C@@H](NC(=O)[C@](C)(Cc1ccccc1)NC(=O)[C@H](CO)NC(=O)CNC(=O)[C@H](CCC(=O)O)NC(=O)C(C)(C)NC(=O)[C@@H](N)Cc1c[nH]cn1)[C@@H](C)O)C(=O)N[C@@H](C)C(=O)N[C@@](C)(CCCCN)C(=O)N[C@@H](CCC(=O)O)C(=O)N[C@@H](Cc1ccccc1)C(=O)N[C@H](C(=O)N[C@@H](C)C(=O)N[C@@H](Cc1ccccc1)C(=O)N[C@@H](CCCCNC(=O)COCCOCCNC(=O)COCCOCCNC(=O)CC[C@H](NC(=O)CCCCCCCCCCC)C(=O)O)C(=O)N[C@H](C(=O)N[C@@H](CCC(=O)O)C(=O)NCC(=O)NCC(N)=O)C(C)C)[C@@H](C)CC)C(=O)O [compound 473] (H-H[Aib]EGS[αMeF]TSDK([AEEA-AEEA-γGlu-Lauroyl])SSYLEGEK([AEEA-AEEA-γGlu-Lauroyl])A[αMeK]EFIAFK([AEEA-AEEA-γGlu-Lauroyl])VEGG-NH2; N-terminus assumed),–,–,–,–

SMILES,"EC50 [1, 4] [nM]","EC50 [1, 5] [nM]","EC50 [2, 6] [nM]","EC50 [2, 7] [nM]","EC50 [3, 8] [pM]","EC50 [3, 9] [pM]","EC50 [3, 10] [pM]","EC50 ([1]; tris-lipidated peptides, second replicate, read-out: Primary assay EC50 Gluc-R (n2)) [nM]","EC50 ([2]; tris-lipidated peptides, second replicate, read-out: Primary assay EC50 GIP-R (n2)) [nM]","EC50 ([3]; tris-lipidated peptides, mean of n1 and n2, read-out: Primary assay EC50 Mean pM GLP-1R) [pM]","EC50 ([3]; tris-lipidated peptides, replicate n1, read-out: Primary assay EC50 GLP-1R n1) [pM]","EC50 ([3]; tris-lipidated peptides, replicate n2, read-out: Primary assay EC50 GLP-1R n2) [pM]","EC50 ([1]; Primary assay EC50 Gluc-R (n1), cAMP assay, first determination (n1)) [nM]","EC50 ([1]; read-out: Primary assay EC50 Gluc-R (n2), cAMP assay, second determination (n2)) [nM]","EC50 ([2]; Primary assay EC50 GIP-R (n1), cAMP assay, first determination (n1)) [nM]","EC50 ([2]; read-out: Primary assay EC50 GIP-R (n2), cAMP assay, second determination (n2)) [nM]"
CC[C@H](C)[C@H](NC(=O)[C@](C)(Cc1ccccc1)NC(=O)[C@H](CCC(=O)O)NC(=O)[C@H](CCCCNC(=O)COCCOCCNC(=O)COCCOCCNC(=O)CCCCCCCCCCCOc1ccc(C(=O)O)cc1)NC(=O)[C@H](C)NC(=O)[C@H](C)NC(=O)[C@H](CCC(=O)O)NC(=O)CNC(=O)[C@H](CCC(=O)O)NC(=O)[C@H](CC(C)C)NC(=O)[C@](C)(Cc1ccccc1)NC(=O)[C@H](CO)NC(=O)[C@](C)(CO)NC(=O)[C@@H](NC(=O)[C@H](CC(=O)O)NC(=O)[C@H](CO)NC(=O)[C@@H](NC(=O)[C@](C)(Cc1ccccc1)NC(=O)[C@H](CO)NC(=O)CNC(=O)[C@H](CCC(=O)O)NC(=O)C(C)(C)NC(=O)[C@@H](N)Cc1c[nH]cn1)[C@@H](C)O)C(C)C)C(=O)N[C@@H](C)C(=O)N[C@@](C)(Cc1ccccc1)C(=O)N[C@H](C(=O)N[C@H](C(=O)N[C@@](C)(CCCCN)C(=O)NCC(=O)NCC(N)=O)C(C)C)C(C)C [compound 144],–,–,–,–,16,9.6,12.6,–,–,–,–,–,≥ 26,≥ 26,≥ 26,≥ 26

# — US10414811B2, “Protease-resistant lipidated GLP-1 analogs” (MEDIMMUNE LIMITED, priority 2015, dated 2019)
